# Assay results published in paper PMC4764579, “Structural insights into the mechanism of activation of the TRPV1 channel by a membrane-bound tarantula toxin” (eLife, 2016).
# Positions of bridges follow the written chain, without caps; N, C: chain ends. Residues, ends and D or L forms follow the SMILES beside them.
# Target: T1, rat TRPV1 (Rattus norvegicus, UniProt O35433)
# T1 construct: expressed in transfected cells; host or cells: Xenopus laevis oocytes (cRNA injection, pGEM-HE vector)
# Experiment: Two-electrode voltage clamp recordings of oocytes expressing TRPV1, toxin current normalised to saturating capsaicin
# Type: cell-based
# Settings: concentration-response, see Figure 3F
# Source text: Figure 3. Validation of the proposed structural model of the TRPV1-DkTx complex. Close-up of K1 (A) and K2 (B) in the top-ranking ROSETTA model of DkTx bound to TRPV1. Side chains of TRPV1 residues where mutation disrupts DkTx-induced channel activation (I599, F649, A657 and F659) ([Bohlen et al., 2010]) are highlighted in purple. (C) Representative time courses of TRPV1 activation at +120 mV by either DkTx (left panel), K1K1 (middle panel) or K2K2 (right panel) measured from a train of voltage-ramps in the whole-cell configuration with the TRPV1 expressed in HEK cells. […] Fractional dissociation 1 min after toxin removal was quantified across cells as the current amplitude 1 min after toxin removal divided by the steady-state current amplitude in the presence of the toxin. […] Activation of the full-length TRPV1 channel by the toxin at different concentrations was measured in oocytes at a holding voltage of −60 mV. […]
# Xenopus laevis oocytes were surgically removed and gently shaken for 60 min in a solution of 82.5 mM NaCl, 2.5 mM KCl, 1 mM MgCl2, 5 mM HEPES and 2 mg/mL collagenase. […] TRPV1 activity was recorded under voltage clamp using a two-electrode voltage clamp (OC-725C; Warner Instruments) in a 150-μL recording chamber. The recorded data were filtered at 1 kHz and digitized at 5 kHz using a digidata analog/digital converter and pClamp software (Molecular Devices). […]
# T1 sequence (O35433 whole entry): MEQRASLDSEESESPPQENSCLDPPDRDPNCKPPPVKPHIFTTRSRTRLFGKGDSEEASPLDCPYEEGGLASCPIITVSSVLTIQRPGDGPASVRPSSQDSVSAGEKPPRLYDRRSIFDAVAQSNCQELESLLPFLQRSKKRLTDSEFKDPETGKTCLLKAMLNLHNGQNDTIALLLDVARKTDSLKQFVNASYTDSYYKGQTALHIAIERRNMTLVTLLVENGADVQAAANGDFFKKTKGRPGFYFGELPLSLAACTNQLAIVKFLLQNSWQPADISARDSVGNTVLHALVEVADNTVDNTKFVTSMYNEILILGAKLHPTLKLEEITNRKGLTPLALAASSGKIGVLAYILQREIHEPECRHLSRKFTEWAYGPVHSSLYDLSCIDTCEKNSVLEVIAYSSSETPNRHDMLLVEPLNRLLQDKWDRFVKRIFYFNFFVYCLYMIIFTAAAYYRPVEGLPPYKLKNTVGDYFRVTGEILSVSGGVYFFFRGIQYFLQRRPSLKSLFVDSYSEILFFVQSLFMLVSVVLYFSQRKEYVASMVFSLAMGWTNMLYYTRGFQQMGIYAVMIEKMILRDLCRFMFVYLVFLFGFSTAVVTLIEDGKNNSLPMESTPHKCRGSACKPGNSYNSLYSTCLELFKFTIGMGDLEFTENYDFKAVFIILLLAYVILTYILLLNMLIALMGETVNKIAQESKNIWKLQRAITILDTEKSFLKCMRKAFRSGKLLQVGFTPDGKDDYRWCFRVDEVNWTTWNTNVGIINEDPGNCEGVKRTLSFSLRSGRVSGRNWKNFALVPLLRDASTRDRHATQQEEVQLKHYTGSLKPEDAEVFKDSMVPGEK
smiles,measurement,value
"CC[C@H](C)[C@@H]1NC(=O)[C@H](Cc2ccccc2)NC(=O)[C@H](C)NC(=O)[C@H](CC(C)C)NC(=O)[C@@H]2CCCN2C(=O)[C@@H]2CSSC[C@@H]3NC(=O)[C@H](C(C)C)NC(=O)[C@H](CCC(=O)O)NC(=O)CNC(=O)[C@H](CCC(=O)O)NC(=O)[C@H](CCCCN)NC(=O)[C@H](C)NC(=O)[C@@H](NC(=O)[C@@H](N)CC(N)=O)CSSC[C@H](NC(=O)[C@H](CSSC[C@@H](C(=O)N[C@@H](CCC(=O)O)C(=O)N[C@@H](CCCCN)C(=O)N[C@@H](Cc4ccc(O)cc4)C(=O)N[C@@H](CCCNC(=N)N)C(=O)O)NC(=O)[C@H](Cc4ccc(O)cc4)NC(=O)[C@@H]4CCCN4C1=O)NC(=O)[C@H](CCCCN)NC(=O)[C@H](CO)NC(=O)CNC(=O)[C@H](Cc1c[nH]c4ccccc14)NC(=O)CNC3=O)C(=O)N[C@@H](Cc1c[nH]cn1)C(=O)NCC(=O)N[C@@H](CC(C)C)C(=O)N[C@@H](CC(=O)O)C(=O)N2 [K2] (H-NCAKEGEVCGWGSKCCHGLDCPLAFIPYCEKYR-OH; disulfide 2-16, 9-21, 15-29 (inferred); N-terminus and C-terminus assumed)",concentration range where activation of TRPV1 saturates (in words),low micromolar range
